Measured values: ChEMBL document CHEMBL1156203, “Synthesis and evaluation of alkenyl indazoles as selective Aurora kinase inhibitors” (Bioorg Med Chem Lett, 2010)

Experiments:
Aurora kinase A = target: T1, Aurora kinase A (Homo sapiens, UniProt O14965); test: Inhibition of hexahistidine tagged recombinant Aurora A expressed in Hi-5 cells assessed as ATP remaining after 2 hrs by bioluminescence
T1 sequence (O14965 whole entry): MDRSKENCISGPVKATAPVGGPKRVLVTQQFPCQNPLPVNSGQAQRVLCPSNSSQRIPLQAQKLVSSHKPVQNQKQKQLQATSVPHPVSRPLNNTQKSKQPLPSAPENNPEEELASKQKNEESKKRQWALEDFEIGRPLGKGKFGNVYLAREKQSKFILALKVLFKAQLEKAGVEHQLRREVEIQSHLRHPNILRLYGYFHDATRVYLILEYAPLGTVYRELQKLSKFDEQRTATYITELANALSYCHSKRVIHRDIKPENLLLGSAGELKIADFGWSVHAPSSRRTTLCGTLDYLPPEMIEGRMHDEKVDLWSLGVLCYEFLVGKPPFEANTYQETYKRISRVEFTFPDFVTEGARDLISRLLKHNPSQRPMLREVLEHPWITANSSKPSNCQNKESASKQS

[1] = Selectivity ratio of IC50 for recombinant Aurora A to IC50 for recombinant Aurora B
Aurora kinase B = Aurora kinase B (Homo sapiens, UniProt Q96GD4); test: Inhibition of GST tagged recombinant Aurora B expressed in Hi-5 cells after 1 hr by TRF assay
Sequence of Aurora kinase B (Q96GD4 whole entry): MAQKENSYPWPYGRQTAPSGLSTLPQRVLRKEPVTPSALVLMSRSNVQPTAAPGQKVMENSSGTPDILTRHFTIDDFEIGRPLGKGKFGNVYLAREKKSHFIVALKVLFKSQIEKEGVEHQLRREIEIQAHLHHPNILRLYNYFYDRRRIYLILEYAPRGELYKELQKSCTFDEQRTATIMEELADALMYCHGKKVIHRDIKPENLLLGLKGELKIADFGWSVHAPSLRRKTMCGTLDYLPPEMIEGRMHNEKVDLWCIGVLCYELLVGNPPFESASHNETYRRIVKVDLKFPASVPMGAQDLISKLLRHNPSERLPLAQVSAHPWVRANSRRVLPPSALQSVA

IC50 (Aurora kinase A) [nM]	Ratio IC50 [1]	IC50 (Aurora kinase B) [nM]	Structure (SMILES)
19	–	–	Cc1cc2[nH]nc(/C=C/c3ccccc3)c2cc1NC(=O)Cc1ccccc1
22	–	–	O=C(Cc1ccccc1)Nc1ccc2[nH]nc(/C=C/c3ccccc3)c2c1
35	1.3	26	CN1CCN(Cc2cccc(/C=C/c3n[nH]c4ccc(NC(=O)Cc5cccs5)cc34)c2)CC1
13	0.28	46	Cc1cc2[nH]nc(/C=C/c3cccc(NC(=O)N4CCN(C)CC4)c3)c2cc1NC(=O)Cc1cccs1
620	5	130	C(=C\c1n[nH]c2cc(N3CCCC3)c(NCc3ccccn3)cc12)/c1ccccc1
91	0.8	110	O=C(Cc1cccs1)Nc1cc2c(/C=C/c3ccccc3)n[nH]c2cc1N1CCCC1
17	–	47	Cc1cc2[nH]nc(/C=C/c3ccccc3)c2cc1NC(=O)Cc1cccs1
240	–	110	Cc1cc2[nH]nc(C#Cc3ccccc3)c2cc1NC(=O)Cc1cccs1
1700	–	–	O=C(Cc1ccccc1)Nc1ccc2[nH]nc(CCc3ccccc3)c2c1
280	4.7	59	Cc1c(C#N)ccc2[nH]nc(/C=C/c3cccc(CN4CCN(C)CC4)c3)c12
160	3.5	46	C(=C\c1n[nH]c2cc(N3CCCC3)c(-c3ccncc3)cc12)/c1ccccc1
1900	19	99	Cc1c(NC(=O)Cc2cccs2)ccc2[nH]nc(/C=C/c3cccc(CN4CCN(C)CC4)c3)c12
350	11.3	31	Cc1cc(N)cc(-c2ccc3[nH]nc(/C=C/c4cccc(CN5CCN(C)CC5)c4)c3c2C)c1
79	0.6	130	Cc1cc2[nH]nc(/C=C/c3cccc(CN4CCN(C)CC4)c3)c2cc1NC(=O)Cc1cccs1
640	–	1640	O=C(Cc1ccccc1)Nc1ccc2[nH]nc(C3CC3c3ccccc3)c2c1 (centres undefined)
200	2.5	81	Nc1cc2c(/C=C/c3ccccc3)n[nH]c2cc1N1CCCC1
35	1.1	31	O=S(=O)(Cc1ccccc1)Nc1ccc2[nH]nc(/C=C/c3ccccc3)c2c1
42	0.23	180	COc1ccc(OC)c(CC(=O)Nc2cc3c(/C=C/c4ccccc4)n[nH]c3cc2C)c1
> 10000	> 12	810	CN1CCN(c2cc3[nH]nc(/C=C/c4ccccc4)c3cc2NCc2ccccn2)CC1
240	2.2	110	O=[N+]([O-])c1cc2c(/C=C/c3ccccc3)n[nH]c2cc1N1CCCC1
140	2.3	62	CN1CCN(C(=O)Nc2cccc(/C=C/c3n[nH]c4cc(N5CCCC5)c(NS(C)(=O)=O)cc34)c2)CC1
